Measured values taken from patent US20080044348A1 (priority 2006, published 2008).

Tested on: HIF1α signaling
Assay type: cell-based

| Molecule | effect on CoCl2-induced HIF1α signaling | time to induce hypoxia in the entire spheroid [h] |
| --- | --- | --- |
| COc1ccc(C[C@H]2NC[C@H](O)[C@H]2OC(C)=O)cc1 [Anisomycin] | suppressed CoCl2-induced HIF1α signaling | – |
| PD 168393 | no significant effect on HIF1α signaling | – |
| COc1cc2c(cc1OC)[C@@H]1C(=O)c3ccc4c(c3O[C@@H]1CO2)C=CC(C)(C)O4 [Deguelin] | no significant effect on HIF1α signaling | – |
| COc1cc2ncnc(Nc3ccc(F)c(Cl)c3)c2cc1OCCCN1CCOCC1 [Iressa] | suppressed CoCl2-induced HIF1α signaling | – |
| COc1cc(C[C@H]2C(=O)OC[C@@H]2Cc2ccc(OC)c(OC)c2)ccc1O [Arctigenin] | suppressed CoCl2-induced HIF1α signaling | – |
| Cc1ccc(NC(=O)c2ccc(CN3CCN(C)CC3)cc2)cc1Nc1nccc(-c2cccnc2)n1 [Gleevec] | no significant effect on HIF1α signaling | – |
| C#Cc1cccc(Nc2ncnc3cc(OCCOC)c(OCCOC)cc23)c1 [Tarceva] | suppressed CoCl2-induced HIF1α signaling | – |
| Nc1ccn([C@@H]2O[C@H](CO)[C@@H](O)C2(F)F)c(=O)n1 [Gemzar] | suppressed CoCl2-induced HIF1α signaling | – |
| CCCCCCCCCCC[C@@H](C[C@@H]1OC(=O)[C@H]1CCCCCC)OC(=O)[C@H](CC(C)C)NC=O [Orlistat] | suppressed CoCl2-induced HIF1α signaling | – |
| C[S+]([O-])c1ccc(-c2nc(-c3ccncc3)c(-c3ccc(F)cc3)[nH]2)cc1 (centres unmarked) [SB 203580] | no significant effect on HIF1α signaling | – |
| [Cl][Co][Cl] [Cobalt chloride] | – | 6 to 8 |
